In patent publication US9409952B2, “Peptide-compound cyclization method” (Chugai Seiyaku Kabushiki Kaisha, priority 2011, dated 2016):
Like-named read-outs stand apart in the source and are kept apart here. Starred links: 1 amine or outer side, 2 acyl side, 3 side chain; linkers in the order of their positions; H or OH if unused. Positions of bridges follow the written chain, without caps; N, C: chain ends. Non-standard residues stand in square brackets, D forms with d. Residues, ends and D or L forms follow the SMILES beside them. *: point of attachment. NMePhe(3-Cl) = CN[C@@H](Cc1cccc(Cl)c1)C(=O)O; NMeF = CN[C@@H](Cc1ccccc1)C(=O)O; NMeGABA = CN(CCCC(=O)[*:2])[*:1]; NMeI = CC[C@H](C)[C@H](NC)C(=O)O; NMeL = CN[C@@H](CC(C)C)C(=O)O; NMeV = CN[C@H](C(=O)O)C(C)C; NMeS = CN[C@@H](CO)C(=O)O; NMeA = CN[C@@H](C)C(=O)O; Piperidide = C1CCN(*)CC1; dNMeA = CN[C@H](C)C(=O)O; β3hA = C[C@H](N)CC(=O)O; Abu = CC[C@H](N)C(=O)O; Sar = CNCC(=O)O; tBu = CC(C)(C)*

What was measured:
[1] = PAMPA (parallel artificial membrane permeability assay); assay type: in vitro ADME; settings: PAMPA
Method in brief: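 Artificial membrane was 10% (w/v) egg lecithin plus 0.5% (w/v) cholesterol in dodecane on a PVDF filter. A 10 mM DMSO stock was added at 0.5% (v/v) to donor buffer (50 mM MOPSO, pH 6.5, 5.0% glycocholic acid). After 18 h at 37 °C, LC/MS or LC/UV gave donor and acceptor levels for Pe.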

[2] = Metabolic stability in human hepatic microsome; assay type: in vitro ADME; settings: microsomes
[3] = membrane permeation rate (Pe), 50 mM MOPSO buffer pH 6.5 with 5.0% glycocholic acid, 37° C., 18 hours, read-out: iPAMPA Pe
[4] = pH 7.4, human hepatic microsome, NADPH(+), read-out: CL NADPH(+)

SMILES: CC[C@H](C)[C@@H]1NC(=O)[C@H](CC(C)C)N(C)C(=O)[C@H](Cc2ccccc2)N(C)C(=O)[C@@H](C(C)C)NC(=O)C[C@H](C)NC(=O)[C@H](CC(C)C)N(C)C(=O)[C@H](C)N(C)C(=O)[C@H]([C@@H](C)O)NC(=O)[C@H](Cc2ccccc2)N(C)C(=O)[C@H](CC(C)C)N(C)C1=O [DP-781] (cyclo(I[NMeL][NMeF]T[NMeA][NMeL][β3hA][dV][NMeF][NMeL]))
- Papp at 18 hours, 50 µM ([1]; pH 6.5): 29 ×10⁻⁶ cm/s
- microsomal CLint at 1 uM ([2]; human, pH 7.4, CL NADPH(+)): 142 µL/min/mg

SMILES: C=C1CCC(=O)N[C@@H](CC(C)C)C(=O)N2CCC[C@H]2C(=O)N(C)[C@@H](C(C)C)C(=O)N[C@@H](Cc2ccccc2)C(=O)N(C)[C@@H](Cc2ccccc2)C(=O)N(C)[C@@H](CC(C)C)C(=O)N[C@@H](C)C(=O)N(C)[C@@H]([C@@H](C)CC)C(=O)N[C@H](C(=O)N2CCCCC2)Cc2ccc1cc2 [DP-869]
- Papp at 18 hours, 50 µM [1, 3]: 0.86 ×10⁻⁶ cm/s
- microsomal CLint at 1 uM [2, 4]: 331 µL/min/mg

SMILES: CC(C)C[C@H]1C(=O)N[C@H](C(=O)N2CCCCC2)CC(=O)N(C)[C@H](C)C(=O)N(C)[C@@H](Cc2ccccc2)C(=O)N(C)[C@@H](CC(C)C)C(=O)N[C@@H]([C@@H](C)O)C(=O)N(C)[C@@H](C)C(=O)N[C@@H](COC(C)(C)C)C(=O)N1C [DP-682] ([dNMeA][NMeF][NMeL]T[NMeA]S(tBu)[NMeL]D-Piperidide; lactam N-8)
- Papp at 18 hours, 50 µM [1, 3]: 13 ×10⁻⁶ cm/s
- microsomal CLint at 1 uM [2, 4]: 20 µL/min/mg

SMILES: CC[C@H](C)[C@H](NC(=O)[C@H](C)N(C)C(=O)[C@H](CC(C)C)N(C)C(=O)[C@H](CC(C)C)NC(=O)[C@@H]1CC(=O)N[C@@H](Cc2ccccc2)C(=O)N[C@@H]([C@@H](C)CC)C(=O)N(C)[C@@H](CC(C)C)C(=O)N(C)[C@@H](CC(C)C)C(=O)N[C@@H](Cc2ccccc2)C(=O)N[C@@H]([C@@H](C)O)C(=O)N(C)[C@@H](Cc2cccc(Cl)c2)C(=O)N1)C(=O)N1CCCCC1 [DP-931] (FI[NMeL][NMeL]FT[NMePhe(3-Cl)]DL[NMeL][NMeA]I-Piperidide; lactam N-8)
- Papp at 18 hours, 50 µM [1, 3]: 0.1 ×10⁻⁶ cm/s
- microsomal CLint at 1 uM [2, 4]: 12 µL/min/mg

SMILES: CC(C)C[C@H]1C(=O)N[C@@H](COC(C)(C)C)C(=O)N(C)[C@@H](Cc2ccccc2)C(=O)N(C)[C@@H](C)C(=O)N[C@@H](Cc2ccccc2)C(=O)N(C)[C@@H](C(C)C)C(=O)N[C@H](C(=O)N2CCCCC2)CC(=O)N(C)[C@H](C)C(=O)N[C@@H]([C@@H](C)O)C(=O)NCC(=O)N1C [DP-340] ([dNMeA]TG[NMeL]S(tBu)[NMeF][NMeA]F[NMeV]D-Piperidide; lactam N-10)
- Papp at 18 hours, 50 µM [1, 3]: 31 ×10⁻⁶ cm/s
- microsomal CLint at 1 uM [2, 4]: 86 µL/min/mg

SMILES: CC(C)C[C@H]1C(=O)N[C@H](C(=O)N2CCCCC2)CC(=O)N(C)[C@H](C)C(=O)N(C)[C@@H](CC(C)C)C(=O)N[C@@H]([C@@H](C)O)C(=O)N(C)CC(=O)N[C@@H](COC(C)(C)C)C(=O)N1C [DP-536] ([dNMeA][NMeL]T[Sar]S(tBu)[NMeL]D-Piperidide; lactam N-7)
- Papp at 18 hours, 50 µM [1, 3]: 9.9 ×10⁻⁶ cm/s
- microsomal CLint at 1 uM [2, 4]: 113 µL/min/mg

SMILES: CC[C@@H]1NC(=O)[C@H](CO)N(C)C(=O)[C@H](CC(C)C)N(C)C(=O)[C@H](CC(C)C)N(C)C(=O)[C@H](CC(C)C)N(C)C(=O)[C@@H](CC(C)C)NC(=O)[C@H](C)NC(=O)[C@H](CC(C)C)N(C)C(=O)[C@H](C)NC(=O)[C@H](CC(C)C)N(C)C(=O)C[C@H](C)NC1=O [DP-650] (cyclo(A[NMeL]A[dL][NMeL][NMeL][NMeL][NMeS][Abu][β3hA][NMeL]))
- Papp at 18 hours, 50 µM [1, 3]: 26 ×10⁻⁶ cm/s
- microsomal CLint at 1 uM [2, 4]: 33 µL/min/mg

SMILES: CC[C@H](C)[C@H](NC(=O)[C@H](Cc1ccccc1)NC(=O)[C@@H]1CC(=O)N[C@@H](C)C(=O)N[C@@H]([C@@H](C)O)C(=O)N(C)CC(=O)N[C@@H](CC(C)C)C(=O)N2CCC[C@H]2C(=O)N(C)[C@@H](CC(C)C)C(=O)N[C@@H](Cc2ccccc2)C(=O)N(C)[C@@H](Cc2ccccc2)C(=O)N(C)[C@@H](CC(C)C)C(=O)N[C@@H](C)C(=O)N(C)[C@@H](CC(C)C)C(=O)N1)C(=O)N1CCCCC1 [DP-952] (AT[Sar]LP[NMeL]F[NMeF][NMeL]A[NMeL]DFI-Piperidide; lactam N-12)
- Papp at 18 hours, 50 µM ([1]; pH 6.5): 4.4 ×10⁻⁶ cm/s
- microsomal CLint at 1 uM ([2]; human, pH 7.4, CL NADPH(+)): 91 µL/min/mg

SMILES: CC[C@H](C)[C@H]1C(=O)N[C@H](C(=O)N2CCCCC2)CC(=O)N[C@H](C)C(=O)N[C@@H](Cc2ccccc2)C(=O)N(C)[C@@H](C)C(=O)N(C)[C@@H](C(C)C)C(=O)N[C@@H]([C@@H](C)O)C(=O)N(C)CC(=O)N(C)[C@@H](CC(C)C)C(=O)N[C@@H](C)C(=O)N1C [DP-135] ([dA]F[NMeA][NMeV]T[Sar][NMeL]A[NMeI]D-Piperidide; lactam N-10)
- Papp at 18 hours, 50 µM [1, 3]: 5.2 ×10⁻⁶ cm/s
- microsomal CLint at 1 uM [2, 4]: 15 µL/min/mg

SMILES: CC(C)C[C@H]1C(=O)N[C@H](C(=O)N2CCCCC2)CC(=O)N(C)CCCC(=O)N(C)[C@@H](Cc2ccccc2)C(=O)N[C@@H]([C@@H](C)O)C(=O)N(C)[C@@H](CC(C)C)C(=O)N[C@@H](COC(C)(C)C)C(=O)N1C [DP-681] ([NMeGABA][NMeF]T[NMeL]S(tBu)[NMeL]D-Piperidide; lactam N-7)
- Papp at 18 hours, 50 µM [1, 3]: 28 ×10⁻⁶ cm/s
- microsomal CLint at 1 uM [2, 4]: 275 µL/min/mg
